A short description of this data set: Human HepG2 cell viability assay in 384 well format. Format: toxicity, cell-based. On the set-up: dose 125 nL, time 70.5 hour; cytotoxicity at 70.5 h: concentration not given beside the values. The following applies: HepG2 cells, read-out: Inhibition.
In the case of `Cc1ccc(-c2cn3c(n2)CO[C@@H](CNCc2nccs2)C3)cc1`, the cytotoxicity at 70.5 h is -2.93%.

Take `O=C(c1ccno1)N1CCOC[C@H](Oc2ccccc2)C1`: the cytotoxicity at 70.5 h was -3.41%.

Take `O=S(=O)(Cc1ccccc1)NC[C@H]1Cn2ccnc2CO1`: the cytotoxicity at 70.5 h is 10.3%.

With `CC(C)(C)CN[C@@H]1CO[C@H](CNC(=O)c2cccs2)[C@H]1O`, the cytotoxicity at 70.5 h came out at 4.02%.

Regarding `O=C(NC[C@H]1OC[C@@H](NC2CCC2)[C@@H]1O)Nc1ccccc1`, the cytotoxicity at 70.5 h stood at 16.4%.

Take `O=C1CCC2(CCCN(C(=O)Cc3ccccc3)C2)N1` (stereo not given): the cytotoxicity at 70.5 h stood at 5.57%.

Turning to `O=C1CCC2(CCCN(C(=O)Cc3ccccn3)C2)N1` (stereo not given), the cytotoxicity at 70.5 h was 2.4%.

As to `CC(=O)N1CCN(C(=O)Nc2ccccc2)CC2(CC(=O)N(C)C2)C1` (stereo not given), the cytotoxicity at 70.5 h turned out to be 26.3%.

Turning to `Cc1ccc(C(=O)N2CCC3(CC2)CC(NC(=O)C(C)C)CO3)cc1` (stereo not given), the cytotoxicity at 70.5 h was found to be 5.27%.

Turning to `CC(C)NC(=O)N1CCOC2(CCCNC2)C1` (stereo not given), the cytotoxicity at 70.5 h was 4.28%.

On to `CCCC(=O)N1CCC2(CC1)COC2`, for which the cytotoxicity at 70.5 h was -7.56%.

Consider `O=S(=O)(c1ccccc1)N1C[C@@H]2CCN[C@@H]2C1`, for which the cytotoxicity at 70.5 h is -7.19%.

For `O=C(N[C@]12CC1CN(C(=O)c1ccco1)C2)c1cccc(F)c1` (stereo not given in full), the cytotoxicity at 70.5 h was 13.8%.

Take `O=C1NCCC12CN(CC1CC1)CC21CCNCC1` (stereo not given): the cytotoxicity at 70.5 h is -6.52%.

As to `O=C(N[C@]12CC1CN(C(=O)c1ccco1)C2)c1ccco1` (stereo not given in full), the cytotoxicity at 70.5 h was -2.69%.

On to `CN(Cc1ccco1)C1CCC12CCN(C(=O)c1ccncc1)CC2` (stereo not given), for which the cytotoxicity at 70.5 h is -5.53%.

Turning to `Cc1ccc(S(=O)(=O)N2C[C@@H]3CCN[C@@H]3C2)cc1`, the cytotoxicity at 70.5 h was -4.81%.

With `O=C1CCC2(CCCN(C(=O)c3cccnc3)CC2)N1` (stereo not given), the cytotoxicity at 70.5 h was -3.4%.

For the compound `CN(C)C(=O)CN1CCC2(CC1)COC2`, the cytotoxicity at 70.5 h is -5.41%.

In the case of `CN1CCC2(CCN(C(=O)c3ccccc3)CC2)C1`, the cytotoxicity at 70.5 h is 31.4%.

Take `CC(C)C(=O)N1CCC2(CC1)[C@@H]1CN(C(=O)N(C)C)C[C@@H]1C(=O)N2C`: the cytotoxicity at 70.5 h is 28.3%.

Turning to `CC(=O)N1CCOC2(CCCN(C(=O)CCN3CCCCC3)C2)C1` (stereo not given), the cytotoxicity at 70.5 h is -1.24%.

`CCC(C)N1CCc2c(C(=O)N3CCOCC3)n[nH]c2C1` (stereo not given): the cytotoxicity at 70.5 h is -3.05%.

As for `C[C@@H]1C[C@H]2CN(C(=O)C3=CCCC3)C[C@H]2O1`, the cytotoxicity at 70.5 h was -4.11%.

For `CCN1C[C@@H]2CN(S(=O)(=O)c3cccs3)C[C@@H]2C1=O`, the cytotoxicity at 70.5 h was -8.27%.

As for `Cn1cc(CN2CCc3c(c(COCC#N)nn3C)C2)cn1`, the cytotoxicity at 70.5 h was -13.6%.

Turning to `CCc1ccc(CN2CCC3(CC2)C(=O)N(C)CCN3CC)cc1`, the cytotoxicity at 70.5 h is -10.4%.

For the compound `CCN1CC[C@@]2(C(=O)N(C)C)CCN(C(=O)NC(C)C)CC[C@@H]12`, the cytotoxicity at 70.5 h was -4.36%.

Take `CN(C)CCN1CC[C@H]2[C@@H]1CCN2Cc1ccc2c(c1)OCO2`: the cytotoxicity at 70.5 h was -4.2%.

With `O=C(C1CCCCC1)N1C[C@@H]2CCNC[C@@H]21`, the cytotoxicity at 70.5 h was -4.1%.

`CN1CCCC2(C1)CN(C(=O)C1CCCCC1)CCO2` (stereo not given): the cytotoxicity at 70.5 h is -4.05%.

With `CCN1CCc2c(c(COC)nn2C)C1`, the cytotoxicity at 70.5 h is -10.5%.

In the case of `CN(C)C(=O)N1Cc2ccccc2C2(CCN(C3CCOCC3)CC2)C1`, the cytotoxicity at 70.5 h was -10.7%.

Turning to `C[C@@H]1C[C@H]2CN(C(=O)C3=CCCCC3)C[C@H]2O1`, the cytotoxicity at 70.5 h is -10.1%.

On to `CC(C)CNC(=O)N1C[C@H]2CCN[C@H]2C1`, for which the cytotoxicity at 70.5 h was -8.65%.

For `O=C(c1ccc(F)c(F)c1)N1C[C@H]2CNC[C@H]2C1`, the cytotoxicity at 70.5 h is -11.5%.

As to `Cc1ccc(CN2CCC3(CCN(S(=O)(=O)c4ccccc4)C3)C2)o1` (stereo not given), the cytotoxicity at 70.5 h stood at 27.1%.

In the case of `O=C(C1CCC1)N1C[C@H]2CNC[C@H]2C1`, the cytotoxicity at 70.5 h came to 13.3%.

Regarding `O=C(c1ccoc1)N1CC[C@H]2[C@H]1CCN2CC1CC1`, the cytotoxicity at 70.5 h was -3.04%.

Consider `c1cc(CN2CCC3(CC2)COC(COCC2CC2)C3)co1` (stereo not given), for which the cytotoxicity at 70.5 h was -20.3%.

Regarding `CC(C)NC(=O)N1CCCC2(CCN(c3ccsc3)C2=O)C1` (stereo not given), the cytotoxicity at 70.5 h was -12.5%.

With `O=C(c1ccoc1)N1CCOCC2(CCN(Cc3cccs3)C2)C1` (stereo not given), the cytotoxicity at 70.5 h was -12.4%.

Take `O=C(NCc1ccco1)[C@@H]1C[C@H]2OCC[C@H]2N(c2ncc(F)cn2)C1`: the cytotoxicity at 70.5 h is -14.6%.

Regarding `O=C(c1ccco1)N1CCOCC2(C1)CN(c1ccccn1)C(=O)CO2` (stereo not given), the cytotoxicity at 70.5 h was -4.96%.

On to `CCOCC1CN(C(=O)c2ccoc2C)Cc2cnn(C)c21` (stereo not given), for which the cytotoxicity at 70.5 h is 28.1%.

Take `CCOC(=O)CN1C[C@@H]2OCCN(c3ncc(F)cn3)[C@@H]2C1`: the cytotoxicity at 70.5 h is 21.2%.

With `CN(C)Cc1cn2c(n1)CN(C1CCOC1)CC2` (stereo not given), the cytotoxicity at 70.5 h was -1.23%.

With `CN(Cc1cccnc1)Cc1cn2c(n1)CN(C1CCOCC1)CC2`, the cytotoxicity at 70.5 h was -4.27%.

For the compound `COC(=O)CCC(=O)N1CCC2(CN(Cc3ccc(Cl)cc3)C2)C1`, the cytotoxicity at 70.5 h was -6.67%.

With `Cc1ccoc1C(=O)N1CCO[C@H]2[C@H](OCc3ccncc3)CC[C@@H]21`, the cytotoxicity at 70.5 h is -0.105%.

Consider `Cn1cc(CN2C[C@@H]3COC[C@]3(C(=O)NCc3cccs3)C2)cn1`, for which the cytotoxicity at 70.5 h was -6.51%.

In the case of `COC(=O)NCC1CCC2(CCNCC2)O1` (stereo not given), the cytotoxicity at 70.5 h was 28.3%.

In the case of `CC(C)C(=O)N1C[C@H]2CCCN[C@H]2C1`, the cytotoxicity at 70.5 h was -5.18%.

As to `CC(C)(C)CC(=O)N1C[C@@H]2C[C@H]1CN2`, the cytotoxicity at 70.5 h is -8.19%.

Turning to `O=C(C1CCCCC1)N1C[C@H]2CNC[C@H]2C1`, the cytotoxicity at 70.5 h is -11%.

Take `O[C@@H]1C[C@@](CNCC2CCCC2)(COc2cccnc2)C[C@@H]1O`: the cytotoxicity at 70.5 h is -6.04%.

On to `COCC(=O)N1CCC2(CCC2N(C)Cc2ccco2)CC1` (stereo not given), for which the cytotoxicity at 70.5 h amounted to 3.06%.

As for `COCc1nn(CC2CC2)c2c1CN(Cc1cncn1C)CC2`, the cytotoxicity at 70.5 h is 2.02%.

Turning to `Cc1ccc(CN2CCCC3(CCCC(=O)N3)C2)s1` (stereo not given), the cytotoxicity at 70.5 h was -8.14%.

In the case of `Cn1nc(COCC2CC2)c2c1CCN(Cc1ccco1)C2`, the cytotoxicity at 70.5 h is -9.54%.

Regarding `CN(C)C(=O)N1CCC2(CC1)CN(CC1CC1)CC21CCNC1=O` (stereo not given), the cytotoxicity at 70.5 h turned out to be 0.0936%.

`O=C(C1CCCCC1)N1CCCC2(CCN(c3cnccn3)CC2)C1`: the cytotoxicity at 70.5 h worked out at 23.6%.

Take `CCN1CCN(C)C(=O)C12CCN(Cc1cccc(C)c1)CC2`: the cytotoxicity at 70.5 h was found to be 2.19%.

For the compound `CCN1CC[C@@]2(C(=O)N3CCOCC3)CCN(C(=O)NC)CC[C@@H]12`, the cytotoxicity at 70.5 h is -10.8%.

Regarding `CN(C)C(=O)N1CCc2onc(C(=O)Nc3cccnc3)c2C1`, the cytotoxicity at 70.5 h is -19.2%.

For `CCc1ccc(CN2CCC3(CC2)C(=O)N(C)CCN3CC2CC2)cc1`, the cytotoxicity at 70.5 h is -13.9%.

Turning to `CS(=O)(=O)N1CC[C@@H]2[C@@H]1CCN2Cc1ccc2c(c1)OCO2`, the cytotoxicity at 70.5 h is -0.795%.

Regarding `CC(C)NC(=O)N1CCc2onc(C(=O)Nc3cccnc3)c2C1`, the cytotoxicity at 70.5 h was -9.09%.

With `O=C(c1ccc(F)cc1)N1CC[C@H]2[C@H]1CCN2CC1CC1`, the cytotoxicity at 70.5 h is -17.1%.

As to `COCCN1C[C@@H](c2ccccc2)[C@@]2(CCN(CC(=O)N(C)C)C2=O)C1`, the cytotoxicity at 70.5 h is -9.6%.

In the case of `Cc1ccc(CN2CCC3(CCC(C(=O)N(C)C)O3)CC2)o1` (stereo not given), the cytotoxicity at 70.5 h was -23.2%.

`C[C@@H]1CN(Cc2ccoc2)C[C@]12CCN(CC(=O)N(C)C)C2=O`: the cytotoxicity at 70.5 h is -12%.

For the compound `C[C@H]1CN(Cc2cccc(F)c2)C[C@@]12CCN(CC(=O)N(C)C)C2=O`, the cytotoxicity at 70.5 h was -5.99%.

With `COc1ccc(CN2CCc3[nH]nc(C(=O)N(C)C)c3C2)cc1`, the cytotoxicity at 70.5 h is -8.01%.

For the compound `CC1c2ncc(CNC(=O)C3CC3)n2CCN1Cc1nccs1` (stereo not given), the cytotoxicity at 70.5 h is -7.88%.

For `CC(C)CCN1C[C@@H]2OCCN(c3ncc(F)cn3)[C@@H]2C1`, the cytotoxicity at 70.5 h was -4.42%.

Take `Cc1ccc(CN2CCc3ncnc(-c4ccoc4)c3CC2)o1`: the cytotoxicity at 70.5 h came to 2.47%.

In the case of `CS(=O)(=O)NC[C@H]1OC[C@H]2CN(Cc3ccsc3)CC[C@H]21`, the cytotoxicity at 70.5 h worked out at 2.09%.

As to `Cc1cc(CN2CC[C@H]3[C@H]2CCN3CC(=O)N(C)C)oc1C`, the cytotoxicity at 70.5 h is -5%.

Turning to `COCCN1C(=O)CCC12CCCN(Cc1ccccc1F)C2` (stereo not given), the cytotoxicity at 70.5 h worked out at 31.9%.

For `O=C1[C@H]2CN(Cc3ccoc3)C[C@H]2CN1CCN1CCCC1`, the cytotoxicity at 70.5 h is -12.5%.

In the case of `Cc1ccc(CN2C[C@@H]3CCN(Cc4ccncc4)C(=O)[C@H]3C2)s1`, the cytotoxicity at 70.5 h was -8.9%.

For `CN(C)CCN1C(=O)CCCC12CCCN(Cc1cccs1)C2` (stereo not given), the cytotoxicity at 70.5 h is -9.38%.

On to `CCOCC(=O)N1CCC2(CC1)COCCN2CCN(C)C`, for which the cytotoxicity at 70.5 h is -9.1%.

On to `Cc1ccc(CN2CCc3nnc(COCCN(C)C)n3CC2)o1`, for which the cytotoxicity at 70.5 h was -11.2%.

For `Cc1nc(CN2CCc3ncnc(-c4cccnc4)c3CC2)cs1`, the cytotoxicity at 70.5 h was determined as 42.8%.

On to `CC[C@@H]1N(Cc2ccncc2)CCC[C@]12CCC(=O)N2CCOC`, for which the cytotoxicity at 70.5 h was -4.38%.

As for `c1cc(CN2CC[C@@H]3[C@@H](CO[C@H]3CN3CCOCC3)C2)cs1`, the cytotoxicity at 70.5 h is -1.87%.

On to `Cc1ccc(CN2CCc3ncnc(-c4ccncc4)c3CC2)o1`, for which the cytotoxicity at 70.5 h was -7.23%.

In the case of `Cc1cccc(N2CCc3ncc(CNc4ccccn4)n3CC2)n1`, the cytotoxicity at 70.5 h is -3.22%.

With `Cn1cnc2c1C(COCC1CC1)CN(c1ncccn1)C2` (stereo not given), the cytotoxicity at 70.5 h was 2.85%.

As to `O=C(NCc1ccccn1)[C@]12COC[C@H]1CN(Cc1ccsc1)C2`, the cytotoxicity at 70.5 h was -0.962%.

As for `CC1c2ncc(Cn3cccn3)n2CCN1Cc1cccnc1` (stereo not given), the cytotoxicity at 70.5 h was -1.36%.

On to `CC1c2ncc(CN3CCN(C)CC3)n2CCN1Cc1ccc(F)cc1` (stereo not given), for which the cytotoxicity at 70.5 h was -2.82%.

As to `CC1c2ncc(CN3CCN(C)CC3)n2CCN1Cc1ccccn1` (stereo not given), the cytotoxicity at 70.5 h was -0.798%.

Source of the values: ChEMBL document CHEMBL3507680, “University of Dundee, Gates Library screen for HepG2 cell viability”.
